Reference: the supplement of paper PMC10307832

Tests used:
Assay in all cases: relative viability (nuclei count vs DMSO), 5 days (fraction); higher = more cells survive
VX-11e + Vorinostat = compound: CC1=CN=C(N=C1C2=CNC(=C2)C(=O)N[C@H](CO)C3=CC(=CC=C3)Cl)NC4=C(C=C(C=C4)F)Cl [VX-11e] + O=C(CCCCCCC(=O)Nc1ccccc1)NO [Vorinostat] (partner 1 µM)
In short: (§1)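 Relative viability is defined as nuclei in treated wells over nuclei in vehicle wells. Duplicate plates were run and medians reported. Lung cancer cell lines in 1536-well plates were dosed by pin tool one day after seeding, with one drug or with a fixed anchor-drug dose plus five library-drug doses (not always all listed) in √10 steps, and nuclei were counted after 5 days.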

VX-11e + Pemetrexed = compound: CC1=CN=C(N=C1C2=CNC(=C2)C(=O)N[C@H](CO)C3=CC(=CC=C3)Cl)NC4=C(C=C(C=C4)F)Cl [VX-11e] + Nc1nc2[nH]cc(CCc3ccc(C(=O)N[C@@H](CCC(=O)O)C(=O)O)cc3)c2c(=O)[nH]1 [Pemetrexed] (partner 0.2 µM)
In short: as §1

VX-11e + Dasatinib = compound: CC1=CN=C(N=C1C2=CNC(=C2)C(=O)N[C@H](CO)C3=CC(=CC=C3)Cl)NC4=C(C=C(C=C4)F)Cl [VX-11e] + Cc1nc(Nc2ncc(C(=O)Nc3c(C)cccc3Cl)s2)cc(N2CCN(CCO)CC2)n1 [Dasatinib] (partner 0.075 µM)
In short: as §1

VX-11e + Palbociclib = compound: CC1=CN=C(N=C1C2=CNC(=C2)C(=O)N[C@H](CO)C3=CC(=CC=C3)Cl)NC4=C(C=C(C=C4)F)Cl [VX-11e] + CC(=O)c1c(C)c2cnc(Nc3ccc(N4CCNCC4)cn3)nc2n(C2CCCC2)c1=O [Palbociclib] (partner 0.5 µM)
In short: as §1

NCI-H2170 was tested, and the relative viability (VX-11e + Vorinostat; first compound 0.04 µM) was 0.835, the relative viability (VX-11e + Vorinostat; first compound 0.1265 µM) was 0.75 and the relative viability (VX-11e + Vorinostat; first compound 0.4 µM) was 0.462. It also gave a relative viability (VX-11e + Vorinostat; first compound 1.265 µM) of 0.67, a relative viability (VX-11e + Vorinostat; first compound 4 µM) of 0.778 and a relative viability (VX-11e + Pemetrexed; first compound 0.04 µM) of 0.222. The relative viability (VX-11e + Pemetrexed; first compound 0.1265 µM) was 0.254, the relative viability (VX-11e + Pemetrexed; first compound 0.4 µM) was 0.232 and the relative viability (VX-11e + Pemetrexed; first compound 1.265 µM) was 0.247. The relative viability (VX-11e + Pemetrexed; first compound 4 µM) was 0.254, the relative viability (VX-11e + Dasatinib; first compound 0.04 µM) was 0.339 and the relative viability (VX-11e + Dasatinib; first compound 0.1265 µM) was 0.664. For the same cell line, the relative viability (VX-11e + Dasatinib; first compound 0.4 µM) was 0.461, the relative viability (VX-11e + Dasatinib; first compound 1.265 µM) was 0.341 and the relative viability (VX-11e + Dasatinib; first compound 4 µM) was 0.445. For the same cell line, the relative viability (VX-11e + Palbociclib; first compound 0.04 µM) was 0.354, the relative viability (VX-11e + Palbociclib; first compound 0.1265 µM) was 0.386 and the relative viability (VX-11e + Palbociclib; first compound 0.4 µM) was 0.381. For the same cell line, the relative viability (VX-11e + Palbociclib; first compound 1.265 µM) was 0.339 and the relative viability (VX-11e + Palbociclib; first compound 4 µM) was 0.424.

With NCI-H2228 the relative viability (VX-11e + Vorinostat; first compound 0.04 µM) was 0.646, the relative viability (VX-11e + Vorinostat; first compound 0.1265 µM) was 0.66 and the relative viability (VX-11e + Vorinostat; first compound 0.4 µM) was 0.617. It also gave a relative viability (VX-11e + Vorinostat; first compound 1.265 µM) of 0.58, a relative viability (VX-11e + Vorinostat; first compound 4 µM) of 0.399 and a relative viability (VX-11e + Pemetrexed; first compound 0.04 µM) of 0.337. It also gave a relative viability (VX-11e + Pemetrexed; first compound 0.1265 µM) of 0.371, a relative viability (VX-11e + Pemetrexed; first compound 0.4 µM) of 0.363 and a relative viability (VX-11e + Pemetrexed; first compound 1.265 µM) of 0.311. For the same cell line, the relative viability (VX-11e + Pemetrexed; first compound 4 µM) was 0.183, the relative viability (VX-11e + Dasatinib; first compound 0.04 µM) was 0.591 and the relative viability (VX-11e + Dasatinib; first compound 0.1265 µM) was 0.578. It also gave a relative viability (VX-11e + Dasatinib; first compound 1.265 µM) of 0.351, a relative viability (VX-11e + Dasatinib; first compound 4 µM) of 0.188 and a relative viability (VX-11e + Palbociclib; first compound 0.04 µM) of 0.832. The relative viability (VX-11e + Palbociclib; first compound 0.1265 µM) was 0.731, the relative viability (VX-11e + Palbociclib; first compound 0.4 µM) was 0.165 and the relative viability (VX-11e + Palbociclib; first compound 1.265 µM) was 0.528. For the same cell line, the relative viability (VX-11e + Palbociclib; first compound 4 µM) was 0.199.

NCI-H2342 gave a relative viability (VX-11e + Vorinostat; first compound 0.1265 µM) of 0.79, a relative viability (VX-11e + Vorinostat; first compound 0.4 µM) of 0.862 and a relative viability (VX-11e + Vorinostat; first compound 1.265 µM) of 0.843. For the same cell line, the relative viability (VX-11e + Vorinostat; first compound 4 µM) was 0.73, the relative viability (VX-11e + Pemetrexed; first compound 0.1265 µM) was 0.83 and the relative viability (VX-11e + Pemetrexed; first compound 0.4 µM) was 0.757. For the same cell line, the relative viability (VX-11e + Pemetrexed; first compound 1.265 µM) was 0.798, the relative viability (VX-11e + Pemetrexed; first compound 4 µM) was 0.737 and the relative viability (VX-11e + Dasatinib; first compound 0.04 µM) was 0.31. It also gave a relative viability (VX-11e + Dasatinib; first compound 0.1265 µM) of 0.282, a relative viability (VX-11e + Dasatinib; first compound 0.4 µM) of 0.285 and a relative viability (VX-11e + Dasatinib; first compound 1.265 µM) of 0.307. The relative viability (VX-11e + Dasatinib; first compound 4 µM) was 0.348, the relative viability (VX-11e + Palbociclib; first compound 0.1265 µM) was 0.542 and the relative viability (VX-11e + Palbociclib; first compound 0.4 µM) was 0.521. The relative viability (VX-11e + Palbociclib; first compound 1.265 µM) was 0.568 and the relative viability (VX-11e + Palbociclib; first compound 4 µM) was 0.515.

For NCI-H2347, the relative viability (VX-11e + Vorinostat; first compound 0.04 µM) was 0.514, the relative viability (VX-11e + Vorinostat; first compound 0.1265 µM) was 0.688 and the relative viability (VX-11e + Vorinostat; first compound 0.4 µM) was 0.5. It also gave a relative viability (VX-11e + Vorinostat; first compound 1.265 µM) of 0.349, a relative viability (VX-11e + Vorinostat; first compound 4 µM) of 0.316 and a relative viability (VX-11e + Pemetrexed; first compound 0.04 µM) of 0.412. For the same cell line, the relative viability (VX-11e + Pemetrexed; first compound 0.1265 µM) was 0.442, the relative viability (VX-11e + Pemetrexed; first compound 0.4 µM) was 0.423 and the relative viability (VX-11e + Pemetrexed; first compound 1.265 µM) was 0.389. The relative viability (VX-11e + Pemetrexed; first compound 4 µM) was 0.368, the relative viability (VX-11e + Dasatinib; first compound 0.04 µM) was 0.221 and the relative viability (VX-11e + Dasatinib; first compound 0.1265 µM) was 0.314. For the same cell line, the relative viability (VX-11e + Dasatinib; first compound 0.4 µM) was 0.126, the relative viability (VX-11e + Dasatinib; first compound 1.265 µM) was 0.232 and the relative viability (VX-11e + Dasatinib; first compound 4 µM) was 0.197. It also gave a relative viability (VX-11e + Palbociclib; first compound 0.04 µM) of 0.475, a relative viability (VX-11e + Palbociclib; first compound 0.1265 µM) of 0.405 and a relative viability (VX-11e + Palbociclib; first compound 0.4 µM) of 0.481. It also gave a relative viability (VX-11e + Palbociclib; first compound 1.265 µM) of 0.398 and a relative viability (VX-11e + Palbociclib; first compound 4 µM) of 0.379.
